We go through eight compounds from patent EP2933270B1, “ARTEANNUIN CYCLODEXTRIN CONJUGATE AND PREPARING METHOD THEREOF” (KPC Pharmaceuticals, Inc., priority 2012, dated 2014).

Read-outs that look alike come from different tables or passages of the source. Where only a bound is given, the exact number is not on record here.

Data set [1] in a line: Solubility in water. The source says: The arteannuin-cyclodextrin conjugate according to the present invention uses a cyclodextrin as a carrier, and a molecule of an arteannuin compound is connected, via an amide bond formed between the carboxyl group thereof and any amine group of the cyclodextrin modified by an amine group, to the cyclodextrin.
Data set [2] has as its system SW480. Briefly: MTT assay, growth inhibition of human rectal cancer cells. The format is cell-based. The following applies: 48 h. How it is done:
(§1) For example, 180 µl suspension of human rectal cancer cells HCT116, Lovo, SW480 and HT29 at a concentration of 4×10^4/mL is added to 96-well culture plate, and pre-cultured under the conditions of 5% CO2, 37°C and saturated moisture for 24h. After 150 µl medium is replaced, 20 µl medium containing molecular assembly at different concentrations is added, and cultured for another 48 h, with the medium free of a sample as a negative control, and a medium containing camptothecin, oxaliplatin and fluorouracil at different concentrations as a positive control. MTT assay is used to determine the OD value, and to calculate the growth inhibition rate. The inhibition of compounds at high, medium and low concentrations on the tumor cell proliferation is observed. All the experiments above are performed in triplet. Results for in vitro experiment of the arteannuin-cyclodextrin conjugate with respect to human rectum and caecum cancer cells are shown in table 1. Table 1 IC50 value (µM) for certain arteannuin compounds in several rectum cancer cells

The test system of data set [3] is Lovo. The data set is described as above. It is filed as cell-based. The following applies: 48 h. How it is done:
as §1

For data set [4], the system named is HCT116. The description is as above. The format is cell-based. How it is done:
as §1

For data set [5], the system named is HT29. Described as above. The settings on record: 48 h. The format is cell-based. How it is done: as §1
The test system of data set [6] is Hep2 hepatoma. The following applies: mice, intraperitoneal injection, 60 mg/kg; cited from earlier work.
Data set [7] relates to hepatocarcinoma H22. The following applies: mice, 300 mg/kg by gavage; cited from earlier work.
[8] abbreviates: isolated product of the example.
Setting [9] is: HT 90 [sic] cells (method: HT29).
Where [10] appears, read: Homo sapiens, HT-29, HT 90 [sic] cells (method: HT29).

Take “conjugate of mono-[6-(monoamine)-6-deoxy]-β-cyclodextrin and the compound in which C-12 of the arteannuin was connected with a phenoxy group [Example 6]”: in data set [1] (setting [8]), the solubility was 54 mg/mL.
`O=C1[O][Pt]2([NH][C@@H]3CCCC[C@H]3[NH]2)[O]C1=O` [oxaliplatin]: the half-maximal inhibitory concentration (IC50) turned out to be 30.1 µM in data set [2], 1.51 µM in data set [3], 0.76 µM in data set [4] (48 h) and 9.7 µM in data set [5] (setting [9]).
Consider `C[C@H]1[C@@H](O)O[C@@H]2O[C@@]3(C)CC[C@H]4[C@H](C)CC[C@@H]1[C@@]24OO3` [dihydroarteannuin], for which the “solubility in water” value in data set [1] is reported as “almost insoluble in water”. The half-maximal inhibitory concentration (IC50) in data set [2] (Homo sapiens) came out at 14.1 µM; in data set [3] (Homo sapiens), 2.11 µM; in data set [4] (Homo sapiens, HCT-116, 48 h) it was 1.76 µM; in data set [5] (setting [10]), 21.1 µM.
Consider `C[C@@H]1CC[C@H]2[C@@H](C)C(=O)O[C@@H]3O[C@@]4(C)CC[C@@H]1[C@]32OO4` [arteannuin], for which the “solubility in water” value in data set [1] (in water) is recorded as “almost insoluble in water”.
“mono-[6-(ethanediamine)-6-deoxy]-β-cyclodextrin-artesunate conjugate [Example 1]” gave a solubility in data set [1] (setting [8]) of 68 mg/mL. For the same compound, the half-inhibitory concentration (IC50) was 3.89 µM in data set [2], 1.62 µM in data set [3], 0.58 µM in data set [4] (48 h) and 5.18 µM in data set [5] (setting [9]).
`O=c1[nH]cc(F)c(=O)[nH]1` [fluorouracil]: the IC50 in data set [2] (Homo sapiens) came out at 30.8 µM; in data set [3] (Homo sapiens), 23 µM; in data set [4] (Homo sapiens, HCT-116, 48 h) it was 5.4 µM; in data set [5] (setting [10]), 38.5 µM.
As to `C[C@H]1[C@H](OC(=O)CCC(=O)O)O[C@@H]2O[C@@]3(C)CC[C@H]4[C@H](C)CC[C@@H]1[C@@]24OO3` [artesunate], the anti-tumor rate in data set [6] is 80.4%; in data set [7] it was at least 40%. In addition, in data set [1] (in water), the “solubility in water” value was “almost insoluble in water”. For the same compound, the concentration for half-maximal inhibition (IC50) in data set [2] (Homo sapiens) was 1.82 µM; in data set [3] (Homo sapiens), 2.6 µM; in data set [4] (Homo sapiens, HCT-116, 48 h), 1.04 µM; in data set [5] (setting [10]), 9.11 µM.
Compound “conjugate of mono-[6-(ethanediamine)-6-deoxy]-β-cyclodextrin and the compound in which C-12 of the arteannuin was connected with a phenoxy group [Example 5]” came in with a solubility in data set [1] of 68 mg/mL.
